# In ChEMBL document CHEMBL1201862, “PubChem BioAssay data set” (2004):
#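 1) Cells in 96-well plates. 2) Compound, 48 h, 5 concentrations. 3) Linear interpolation between surrounding doses. 4) Unreached endpoint = highest concentration. GI50 = concentration required for 50% inhibition of growth.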 The source made the active and inactive calls. No stated cut-off is given here; in the data, active = GI50 up to about 1.1 µM and inactive = higher.
# Tests used:
# Experiment in all cases: DTP human tumour cell line panel, 48 h
# [1] = test system: CAKI-1
# [2] = test system: HCC 2998
# [3] = test system: HCT-116
# [4] = test system: HCT-15
# [5] = test system: HOP-62
# [6] = test system: MCF7
# [7] = test system: MDA-MB-231
# [8] = test system: NCI-H23
# [9] = test system: NCI-H460
# [10] = test system: OVCAR-5
# [11] = test system: RPMI-8226
# [12] = test system: SN12C
# [13] = test system: SNB-19
# [14] = test system: SNB-75
# [15] = test system: TK-10
# [16] = test system: U-251
# [17] = test system: CCRF-CEM
# [18] = test system: K562
# [19] = test system: Hs-578T
SMILES,GI50 [1],GI50 [2],GI50 [3],GI50 [4],GI50 [5],GI50 [6],GI50 [7],GI50 [8],GI50 [9],GI50 [10],GI50 [11],GI50 [12],GI50 [13],GI50 [14],GI50 [15],GI50 [16],GI50 [17],GI50 [18],GI50 [19]
O=C1Nc2ccccc2/C1=N/NC(=S)N1CCCCC1,0.904 µM (active),1.27 µM (inactive),0.216 µM (active),0.19 µM,0.3 µM (active),1.5 µM (inactive),0.393 µM (active),1.39 µM (inactive),0.0841 µM (active),4.05 µM (inactive),0.299 µM (active),2.17 µM (inactive),1.98 µM (inactive),1.52 µM (inactive),0.295 µM (active),0.678 µM (active),,,
NC(=O)NC(=O)c1cnccn1,> 100 µM (inactive),> 100 µM (inactive),> 100 µM (inactive),> 100 µM,> 100 µM (inactive),> 100 µM (inactive),> 100 µM (inactive),> 100 µM (inactive),> 100 µM (inactive),> 100 µM (inactive),> 100 µM (inactive),> 100 µM (inactive),> 100 µM (inactive),,12.1 µM (inactive),> 100 µM (inactive),> 100 µM (inactive),> 100 µM (inactive),
CCOC(=O)c1cn(-c2ccc([N+](=O)[O-])cc2)c(=S)n2c1nc1ccccc12,42.9 µM (inactive),23.1 µM (inactive),31.1 µM (inactive),35.4 µM,63.2 µM (inactive),33.2 µM (inactive),30.9 µM (inactive),34.1 µM (inactive),51.5 µM (inactive),> 100 µM (inactive),24.6 µM (inactive),50.1 µM (inactive),72.6 µM (inactive),> 100 µM (inactive),,36.2 µM (inactive),9.84 µM (inactive),46.5 µM (inactive),
O=C(O)CCC(NC(=O)c1ccc(Oc2nc3ccccc3nc2-c2ccccc2)cc1)C(=O)O (stereo not given),> 100 µM (inactive),> 100 µM (inactive),> 100 µM (inactive),> 100 µM,> 100 µM (inactive),> 100 µM (inactive),> 100 µM (inactive),> 100 µM (inactive),> 100 µM (inactive),> 100 µM (inactive),,> 100 µM (inactive),> 100 µM (inactive),> 100 µM (inactive),> 100 µM (inactive),> 100 µM (inactive),> 100 µM (inactive),> 100 µM (inactive),
O=C(Nc1ccc2[nH]c(C(=O)N3CC(CCl)c4c3cc([N+](=O)[O-])c3ccccc43)cc2c1)Nc1ccc2[nH]c(C(=O)N3CC(CCl)c4c3cc([N+](=O)[O-])c3ccccc43)cc2c1 (stereo not given),> 100 µM (inactive),,> 100 µM (inactive),> 100 µM,> 100 µM (inactive),> 100 µM (inactive),27.5 µM (inactive),> 100 µM (inactive),> 100 µM (inactive),> 100 µM (inactive),85.7 µM (inactive),> 100 µM (inactive),> 100 µM (inactive),> 100 µM (inactive),> 100 µM (inactive),> 100 µM (inactive),22.4 µM (inactive),,
C[C@@H]1C(=O)O[C@H]1[C@H](O)CO,> 100 µM (inactive),> 100 µM (inactive),> 100 µM (inactive),> 100 µM,> 100 µM (inactive),> 100 µM (inactive),,> 100 µM (inactive),> 100 µM (inactive),> 100 µM (inactive),94.2 µM (inactive),> 100 µM (inactive),> 100 µM (inactive),> 100 µM (inactive),> 100 µM (inactive),> 100 µM (inactive),> 100 µM (inactive),,
N=c1oc2ccccc2cc1C(=O)Nc1ccccn1,45.4 µM (inactive),> 100 µM (inactive),51.9 µM (inactive),75 µM,63 µM (inactive),,> 100 µM (inactive),> 100 µM (inactive),95.9 µM (inactive),> 100 µM (inactive),> 100 µM (inactive),> 100 µM (inactive),> 100 µM (inactive),> 100 µM (inactive),,> 100 µM (inactive),44.8 µM (inactive),> 100 µM (inactive),75 µM (inactive)
CC(=O)O[C@H]1CC[C@@]2(C)C(=CC[C@@H]3C2CC[C@]2(C)Nc4oncc4CC32)C1 (stereo not given in full),31.3 µM (inactive),> 100 µM (inactive),15.5 µM (inactive),33 µM,49.2 µM (inactive),,,44 µM (inactive),20.3 µM (inactive),> 100 µM (inactive),16.9 µM (inactive),,,24.2 µM (inactive),49.2 µM (inactive),37.4 µM (inactive),4.85 µM (inactive),6.68 µM (inactive),
NC(=O)c1ccccc1NC(=O)C(=O)Cc1nc2ccccc2nc1O,> 100 µM (inactive),> 100 µM (inactive),> 100 µM (inactive),> 100 µM,> 100 µM (inactive),,,> 100 µM (inactive),> 100 µM (inactive),96.2 µM (inactive),> 100 µM (inactive),,> 100 µM (inactive),60.8 µM (inactive),> 100 µM (inactive),> 100 µM (inactive),> 100 µM (inactive),> 100 µM (inactive),
NC(=S)NNC(=S)NC(=O)c1ccco1,> 10 µM (inactive),> 10 µM (inactive),> 10 µM (inactive),> 10 µM,> 10 µM (inactive),,> 10 µM (inactive),> 10 µM (inactive),> 10 µM (inactive),> 10 µM (inactive),> 10 µM (inactive),> 10 µM (inactive),> 10 µM (inactive),> 10 µM (inactive),,> 10 µM (inactive),> 10 µM (inactive),> 10 µM (inactive),> 10 µM (inactive)
CCOC(=O)C1OC(=O)CC1C1(C(=O)OCC)C=CC(=O)O1 (stereo not given),> 100 µM (inactive),> 100 µM (inactive),> 100 µM (inactive),> 100 µM,> 100 µM (inactive),> 100 µM (inactive),,> 100 µM (inactive),17.9 µM (inactive),> 100 µM (inactive),> 100 µM (inactive),> 100 µM (inactive),> 100 µM (inactive),> 100 µM (inactive),> 100 µM (inactive),93.8 µM (inactive),59.7 µM (inactive),> 100 µM (inactive),
CCOC(=O)Cn1c(C)nc2nn(Cc3ccccc3)cc2c1=O,,> 100 µM (inactive),> 100 µM (inactive),> 100 µM,> 100 µM (inactive),> 100 µM (inactive),> 100 µM (inactive),> 100 µM (inactive),> 100 µM (inactive),> 100 µM (inactive),,> 100 µM (inactive),> 100 µM (inactive),,> 100 µM (inactive),> 100 µM (inactive),> 100 µM (inactive),> 100 µM (inactive),> 100 µM (inactive)
O=C(NCc1ccc2ccc3cccnc3c2n1)c1ccc[n+](Cc2ccccc2)c1,,> 100 µM (inactive),> 100 µM (inactive),> 100 µM,> 100 µM (inactive),,,> 100 µM (inactive),> 100 µM (inactive),> 100 µM (inactive),54.8 µM (inactive),> 100 µM (inactive),> 100 µM (inactive),> 100 µM (inactive),> 100 µM (inactive),> 100 µM (inactive),> 100 µM (inactive),83.8 µM (inactive),
